Experimental data: patent publication US7863449B2, “Modulators of muscarinic receptors” (Vertex Pharmaceuticals Incorporated, priority 2004, dated 2011)
Counter-ions that a name gives are not always drawn.

Experiments:
M1 muscarinic receptor = biological target: T1, M1 muscarinic receptor (Homo sapiens, UniProt P11229); assay: Functional mobilization of intracellular calcium (FLIPR), M1-CHO cells; assay type: cell-based; details: for Emax: 100% efficacy is the maximum response obtained using Carbachol as a control; for M1 Activity: M1-CHO cells, FLIPR calcium mobilization
T1 construct: expressed in transfected cells; host or cells: CHO (M1-CHO)
T1 sequence (P11229 1-460): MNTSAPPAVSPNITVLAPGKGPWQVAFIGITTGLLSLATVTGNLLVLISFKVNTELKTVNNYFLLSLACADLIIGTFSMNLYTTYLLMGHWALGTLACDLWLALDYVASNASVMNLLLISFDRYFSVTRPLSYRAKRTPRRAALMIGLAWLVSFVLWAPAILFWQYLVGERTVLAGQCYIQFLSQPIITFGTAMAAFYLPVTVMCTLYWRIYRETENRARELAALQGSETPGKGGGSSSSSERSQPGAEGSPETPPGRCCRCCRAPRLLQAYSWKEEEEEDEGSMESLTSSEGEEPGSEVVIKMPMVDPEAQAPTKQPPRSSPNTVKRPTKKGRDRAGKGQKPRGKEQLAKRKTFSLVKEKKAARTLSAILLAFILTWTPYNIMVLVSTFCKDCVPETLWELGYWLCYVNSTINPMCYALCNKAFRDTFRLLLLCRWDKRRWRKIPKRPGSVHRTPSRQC
In short: (§1)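 CHO cells expressing M1 or M4, loaded with Fluo-3 AM or Calcium 3 dye with 1 mM probenecid, 0.5% DMSO final. Agonist mode: compound added directly; antagonist mode: 15 min pre-incubation (or co-application) before carbachol at EC80. Fluorescence recorded 60 s on FLIPR.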

M4 muscarinic receptor = biological target: T2, M4 muscarinic receptor (Homo sapiens, UniProt P08173); assay: Functional mobilization of intracellular calcium (FLIPR), M4-CHO cells; assay type: cell-based; details: for Emax: 100% efficacy is the maximum response obtained using Carbachol as a control; for M4 Activity: M4-CHO cells, FLIPR calcium mobilization
T2 construct: expressed in transfected cells; host or cells: CHO (M4-CHO)
T2 sequence (P08173 1-479): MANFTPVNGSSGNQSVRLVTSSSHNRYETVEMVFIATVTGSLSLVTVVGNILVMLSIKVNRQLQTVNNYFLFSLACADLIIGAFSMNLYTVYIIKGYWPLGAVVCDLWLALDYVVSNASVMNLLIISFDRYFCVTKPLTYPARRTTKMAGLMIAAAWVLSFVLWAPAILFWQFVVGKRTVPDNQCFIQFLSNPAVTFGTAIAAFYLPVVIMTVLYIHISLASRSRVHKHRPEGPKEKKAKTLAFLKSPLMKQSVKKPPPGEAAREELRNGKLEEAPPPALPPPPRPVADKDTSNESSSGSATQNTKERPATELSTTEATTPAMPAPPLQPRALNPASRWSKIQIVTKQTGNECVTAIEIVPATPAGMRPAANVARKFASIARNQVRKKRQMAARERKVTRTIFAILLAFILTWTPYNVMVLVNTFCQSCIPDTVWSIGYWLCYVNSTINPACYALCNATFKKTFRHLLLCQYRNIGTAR
In short: as §1

SMILES | Emax (M1 muscarinic receptor) | M1 Activity (M1 muscarinic receptor) | Emax (M4 muscarinic receptor) | M4 Activity (M4 muscarinic receptor)
COc1cccc(CN2CCC3(CC2)CN(C(C)=O)Cc2ccccc23)c1 [compound 121] | < 25% | + (activity was measured to be greater than 5.0 μM) | < 25% | + (activity was measured to be greater than 5.0 μM)
CCCCC(=O)N1Cc2ccccc2C2(CCN(C3CCN(C(=O)OCC)CC3)CC2)C1 [compound 122] | 25 to 100% | +++ (activity was measured to be less than 1.0 μM) | 25 to 100% | +++ (activity was measured to be less than 1.0 μM)
CCOC(=O)N1CCC(N2CCC3(CC2)CN(C2CCCCC2C)Cc2ccccc23)CC1 (stereo not drawn) [compound 123] | 25 to 100% | +++ (activity was measured to be less than 1.0 μM) | 25 to 100% | +++ (activity was measured to be less than 1.0 μM)
CCOC(=O)N1CCC(CN2CCC3(CC2)CN(C(=O)c2cccs2)Cc2ccccc23)CC1 [compound 124] | 25 to 100% | +++ (activity was measured to be less than 1.0 μM) | 25 to 100% | +++ (activity was measured to be less than 1.0 μM)
CCCOC(=O)N1C2CCC1CC(N1CCC3(CC1)CN(S(=O)(=O)N(C)C)Cc1ccccc13)C2 (stereo not drawn) [compound 125] | 25 to 100% | +++ (activity was measured to be less than 1.0 μM) | 25 to 100% | +++ (activity was measured to be less than 1.0 μM)
CCOC(=O)N1C2CCC1CC(N1CCC3(CC1)CN(C(=O)CC(F)(F)F)Cc1ccccc13)C2 (stereo not drawn) [compound 126] | 25 to 100% | +++ (activity was measured to be less than 1.0 μM) | 25 to 100% | +++ (activity was measured to be less than 1.0 μM)
CCOC(=O)N1CCC(CN2CCC3(CC2)CN(C(=O)NC2CCCC2)Cc2ccccc23)CC1 [compound 127] | 25 to 100% | +++ (activity was measured to be less than 1.0 μM) | 25 to 100% | +++ (activity was measured to be less than 1.0 μM)
CCOC(=O)N1CCC(CN2CCC3(CC2)CN(C(=O)OC)Cc2ccccc23)CC1 [compound 128] | 25 to 100% | +++ (activity was measured to be less than 1.0 μM) | 25 to 100% | +++ (activity was measured to be less than 1.0 μM)
CCCOC(=O)N1CCC(N2CCC3(CC2)CN(C(C)=O)Cc2ccccc23)CC1 [compound 129, Propyl 4-(2-acetyl-2,3-dihydro-1H-spiro[isoquinoline-4,4′-piperidine]-1′-yl)piperidine-1-carboxylate hydrochloride] | 25 to 100% | +++ (activity was measured to be less than 1.0 μM) | 25 to 100% | +++ (activity was measured to be less than 1.0 μM)
CC(C)(C)CCN1CCC2(CC1)c1ccccc1C(=O)N2Cc1ccccc1 [compound 130] | 25 to 100% | ++ (activity was measured to be from 1.0 μM to 5.0 μM) | < 25% | + (activity was measured to be greater than 5.0 μM)
CN(C)S(=O)(=O)N1Cc2ccccc2C2(CCN(C3CC4CCC(C3)N4C(=O)OC3CCC3)CC2)C1 (stereo not drawn) [compound 131] | 25 to 100% | +++ (activity was measured to be less than 1.0 μM) | 25 to 100% | +++ (activity was measured to be less than 1.0 μM)
CCOC(=O)N1C2CCC1CC(N1CCC3(CC1)CN(C(=O)Nc1ccc(F)cc1)Cc1ccccc13)C2 (stereo not drawn) [compound 132] | 25 to 100% | +++ (activity was measured to be less than 1.0 μM) | 25 to 100% | +++ (activity was measured to be less than 1.0 μM)
COC(=O)N1CCC(N2CCC3(CC2)CN(C(C)=O)Cc2ccccc23)CC1 [compound 133] | 25 to 100% | +++ (activity was measured to be less than 1.0 μM) | 25 to 100% | +++ (activity was measured to be less than 1.0 μM)
O=C1NC2(CCN(CCC3CCSCC3)CC2)c2ccccc21 [compound 134] | < 25% | + (activity was measured to be greater than 5.0 μM) | < 25% | + (activity was measured to be greater than 5.0 μM)
CCOC(=O)N1C2CCC1CC(N1CCC3(CC1)CN(c1cccc(Cl)c1)Cc1ccccc13)C2 (stereo not drawn) [compound 136] | > 100% | +++ (activity was measured to be less than 1.0 μM) | 25 to 100% | +++ (activity was measured to be less than 1.0 μM)
CCOc1ccc(CN2CCC3(CC2)CN(C(C)=O)Cc2ccccc23)cc1 [compound 137] | < 25% | + (activity was measured to be greater than 5.0 μM) | < 25% | + (activity was measured to be greater than 5.0 μM)
COCCOC(=O)N1Cc2ccccc2C2(CCN(C3CC4CCC(C3)N4C(=O)O[C@@H]3CCOC3)CC2)C1 (stereo partly drawn) [compound 138] | 25 to 100% | +++ (activity was measured to be less than 1.0 μM) | 25 to 100% | +++ (activity was measured to be less than 1.0 μM)
CC(=O)N1Cc2ccccc2C2(CCN(Cc3ccoc3)CC2)C1 [compound 139] | < 25% | + (activity was measured to be greater than 5.0 μM) | < 25% | + (activity was measured to be greater than 5.0 μM)
COC(=O)N1C2CCC1CC(N1CCC3(CC1)CN(C(C)=O)Cc1ccccc13)C2 (stereo not drawn) [compound 140] | 25 to 100% | +++ (activity was measured to be less than 1.0 μM) | 25 to 100% | +++ (activity was measured to be less than 1.0 μM)
CCOC(=O)N1C2CCC1CC(N1CCC3(CC1)CN(c1cccc(OC)c1)Cc1ccccc13)C2 (stereo not drawn) [compound 141, ethyl 3-(2-(3-methoxyphenyl)-2,3-dihydro-1H-spiro[isoquinoline-4,4′-piperidine]-1′-yl)-8-azabicyclo[3.2.1]octane-8-carboxylate] | 25 to 100% | +++ (activity was measured to be less than 1.0 μM) | 25 to 100% | +++ (activity was measured to be less than 1.0 μM)
CC(=O)N1Cc2ccccc2C2(CCN(Cc3sccc3C)CC2)C1 [compound 142] | < 25% | + (activity was measured to be greater than 5.0 μM) | < 25% | + (activity was measured to be greater than 5.0 μM)
CCOC(=O)N1CCC(CN2CCC3(CC2)CN(C(=O)c2snnc2C)Cc2ccccc23)CC1 [compound 143] | 25 to 100% | +++ (activity was measured to be less than 1.0 μM) | 25 to 100% | +++ (activity was measured to be less than 1.0 μM)
CC(=O)c1ccc(CN2CCC3(CC2)CN(C(C)=O)Cc2ccccc23)cc1 [compound 144] | 25 to 100% | + (activity was measured to be greater than 5.0 μM) | < 25% | + (activity was measured to be greater than 5.0 μM)
CCOC(=O)N1CCC(CN2CCC3(CC2)OC(=O)c2ccc(C)cc23)CC1 [compound 145] | 25 to 100% | +++ (activity was measured to be less than 1.0 μM) | 25 to 100% | +++ (activity was measured to be less than 1.0 μM)
CCOC(=O)N1C2CCC1CC(N1CCC3(CC1)CN(C(=O)c1cccs1)Cc1ccccc13)C2 (stereo not drawn) [compound 146] | 25 to 100% | +++ (activity was measured to be less than 1.0 μM) | 25 to 100% | +++ (activity was measured to be less than 1.0 μM)
CCOC(=O)N1CCC(CN2CCC3(CC2)CN(C(=O)c2ccccc2)Cc2ccccc23)CC1 [compound 147, Ethyl 4-((2-benzoyl-2,3-dihydro-1H-spiro[isoquinoline-4,4′-piperidine]-1′-yl)methyl)piperidine-1-carboxylate hydrochloride] | 25 to 100% | +++ (activity was measured to be less than 1.0 μM) | 25 to 100% | +++ (activity was measured to be less than 1.0 μM)
CCCCOC(=O)N1Cc2ccccc2C2(CCN(C3CC4CCC(C3)N4C(=O)OCC)CC2)C1 (stereo not drawn) [compound 148] | 25 to 100% | +++ (activity was measured to be less than 1.0 μM) | 25 to 100% | +++ (activity was measured to be less than 1.0 μM)
